Measurements published in patent US20070010489A1 (priority 2002, published 2007).
Like-named read-outs stand apart in the source and are kept apart here.

Key:
[1] = system: wild-type HIV-1 strain IIIB; experiment: microbe, parasite or virus in culture; assay type: cell-based
[2] = system: mutant HIV-1 with I84V/L90M mutations; experiment: microbe, parasite or virus in culture; assay type: cell-based
[3] = biological target: T1, recombinant HIV-1 protease (Human immunodeficiency virus type 1 group M subtype B, UniProt P04585); experiment: biochemical; conditions: for IC50: read-out: WT IC50
T1 construct: Enzyme: recombinant HIV-1 protease expressed in E. Coli; purchased Bachem California, Inc. H-9040; host or cells: E. coli

84V90M [4] = biological target: T2, 84V90M (Human immunodeficiency virus type 1 group M subtype B, UniProt P04585, I572V/L578M); assay type: biochemical, HIV; conditions: Enzymatic assay
84V90M [5] = biological target: T2, 84V90M; experiment: cell-based; design: species or system HIV; conditions: Cell-based assay (MT-4)
[6] = Human immunodeficiency virus 1, IIIB
[7] = fold difference in EC50 mutant vs wild type, class symbols
[8] = Human immunodeficiency virus 1, IIIB, class symbols

## CCOP(=O)(OCC)c1ccc(CC(NC(=O)OC2COC3OCCC23)C(O)CN(CC(C)C)S(=O)(=O)c2ccc(OC)cc2)cc1 (stereo not drawn) [drawing 1770 R1=OEt R2=OEt]
[1]; [6]
  EC50: < 50 nM
[2]; [7]
  I84V/L90M fold change: − (≦3)

## COc1ccc(S(=O)(=O)N(CC(C)C)C[C@@H](O)[C@H](Cc2ccc(OCP(=O)(O)O)cc2)NC(=O)OC2CCOC2)cc1 (stereo partly drawn) [OMe, OH]
[2]; fold change
  I84V/L90M fold change: +++ (>30)

## CCOP(=O)(OCC)c1ccc(CNCC(NC(=O)OC2COC3OCCC23)C(O)CN(CC(C)C)S(=O)(=O)c2ccc(OC)cc2)cc1 (stereo not drawn)
[1]; [6]
  EC50: < 50 nM
[2]; [7]
  I84V/L90M fold change: ++ (>10 to ≦30)

## CCOC(=O)C(CC)NP(=O)(COc1ccc(CC(NC(=O)OC2COC3OCCC23)C(O)CN(CC(C)C)S(=O)(=O)c2ccc(OC)cc2)cc1)NC(CC)C(=O)OCC (stereo not drawn) [Example 16e]
[3]; read-out: HIV-1 protease inhibition Ki
  Ki: 8.8 ± 1.7 pM
[1]; read-out: Anti-HIV-1 Cell Culture Activity EC50
  EC50: 12.5 ± 3.5 nM

## CCCCN1C(=O)N(Cc2ccc3[nH]nc(N)c3c2)C(Cc2ccccc2)C(O)C(O)C1Cc1ccccc1 (stereo not drawn) [DMP-851]
84V90M [4]
  IC50: 9.4 nM
84V90M [5]
  EC50: 918 nM

## CCOC(=O)C(CC)OP(=O)(COc1ccc(CC(NC(=O)OC2COC3OCCC23)C(O)CN(CC(C)C)S(=O)(=O)c2ccc(OC)cc2)cc1)Oc1ccccc1 (stereo not drawn) [Compound 5b]
[3]; Ki (pM), class symbols
  Ki: 100 to 1000 pM

## CCOP(=O)(COCCCCN1C(=O)N(Cc2ccc3[nH]nc(N)c3c2)C(Cc2ccccc2)C(O)C(O)C1Cc1ccccc1)OCC (stereo not drawn) [CH2OCH2PO3Et2]
84V90M [4]
  IC50: 123 nM
84V90M [5]
  EC50: 3300 nM

## CCOC(=O)C(C)NP(=O)(Cc1ccc(NCC(NC(=O)OC2COC3OCCC23)C(O)CN(CC(C)C)S(=O)(=O)c2ccc(OC)cc2)cc1)NC(C)C(=O)OCC (stereo not drawn)
[1]; [6]
  EC50: 50 to 500 nM
[2]; [7]
  I84V/L90M fold change: − (≦3)

## COc1ccc(S(=O)(=O)N(CCN(C)C)CC(O)C(Cc2ccc(OCc3ccccc3)cc2)NC(=O)OC2COC3OCCC23)cc1 (stereo not drawn)
[1]; [6]
  EC50: < 50 nM
[2]; fold change
  I84V/L90M fold change: − (≦3)

## COc1cccc(S(=O)(=O)N(CC(C)C)CC(O)C(Cc2ccccc2)NC(=O)OC2COC3OCCC23)c1 (stereo not drawn)
[1]; [6]
  EC50: < 50 nM
[2]; fold change
  I84V/L90M fold change: ++ (>10 to ≦30)

## COc1ccc(S(=O)(=O)N(CCN(C)C)CC(O)C(Cc2ccc(O)cc2)NC(=O)OC2COC3OCCC23)cc1 (stereo not drawn)
[1]; [6]
  EC50: 50 to 500 nM
[2]; fold change
  I84V/L90M fold change: − (≦3)

## CCOC(=O)C(C)NP(=O)(COc1cccc(CN2C(=O)N(Cc3ccc4[nH]nc(N)c4c3)C(Cc3ccccc3)C(O)C(O)C2Cc2ccccc2)c1)NC(C)C(=O)OCC (stereo not drawn) [m-bis-Ala-Et]
84V90M [5]
  EC50: > 6000 nM

## Nc1n[nH]c2ccc(CN3C(=O)N(Cc4cccc(O)c4)C(Cc4ccccc4)C(O)C(O)C3Cc3ccccc3)cc12 (stereo not drawn) [m-OH]
[3]; read-out: Ki
  Ki: 128 pM
[3]
  IC50: 1.6 nM
84V90M [4]
  IC50: 12 nM
84V90M [5]
  EC50: 475 nM

## CCOP(=O)(COc1ccc(CC2C(O)C(O)C(Cc3ccccc3)N(Cc3ccccc3)C(=O)N2Cc2ccccc2)cc1)OCC (stereo not drawn)
84V90M [4]
  IC50: 48 nM
84V90M [5]
  EC50: 2460 nM

## CC(C)CN(CC(O)C(Cc1ccc(OCP(=O)(NC(C)C(=O)OC(C)C)Oc2ccccc2)cc1)NC(=O)OC1CCOC1)S(=O)(=O)c1ccc(N)cc1 (stereo not drawn) [drawing 1864 R1=OPh R2=Ala-iPr]
[3]; Ki (pM), class symbols
  Ki: 10 to 100 pM
[1]; [8]
  EC50: 50 to 500 nM

## COc1ccc(S(=O)(=O)N(CC(C)C)CC(O)C(Cc2ccc(OCP(=O)(NC(C)C(=O)OC(C)C)Oc3ccccc3)cc2)NC(=O)OC2COC3OCCC23)cc1 (stereo not drawn) [drawing 1774 R1=OPh R2=Ala-iPr]
[2]; [7]
  I84V/L90M fold change: − (≦3)

## COc1ccc(S(=O)(=O)N(CC(C)C)CC(O)C(Cc2ccccc2)NC(=O)OC2COC3OCCC23)cc1OCP(=O)(OCc1ccccc1)OCc1ccccc1 (stereo not drawn)
[2]; fold change
  I84V/L90M fold change: ++ (>10 to ≦30)

## CCOP(=O)(OCC)c1ccc(CN(C)CC(NC(=O)OC2COC3OCCC23)C(O)CN(CC(C)C)S(=O)(=O)c2ccc(OC)cc2)cc1 (stereo not drawn)
[1]; [6]
  EC50: < 50 nM
[2]; [7]
  I84V/L90M fold change: − (≦3)

## COc1ccc(S(=O)(=O)N(CC(C)C)C[C@@H](O)[C@H](Cc2ccc(OCP(=O)(Oc3ccccc3)Oc3ccccc3)cc2)NC(=O)OC2CCOC2)cc1 (stereo partly drawn) [OMe, phenol]
[3]; read-out: Ki
  Ki: < 10 pM
[1]; read-out: EC50
  EC50: < 50 nM
[2]; fold change
  I84V/L90M fold change: + (>3 to ≦10)

## CCOP(=O)(COc1ccc(CN2C(=O)N(Cc3ccc4[nH]nc(N)c4c3)C(Cc3ccccc3)C(O)C(O)C2Cc2ccccc2)cc1)OCC (stereo not drawn)
[3]; read-out: Ki
  Ki: > 5000 pM
[3]
  IC50: 627 nM
84V90M [4]
  IC50: 1470 nM
84V90M [5]
  EC50: > 6000 nM

## CCOC(=O)C(CC)OP(=O)(COc1ccc(CC(NC(=O)OC2COC3OCCC23)C(O)CN(CC(C)C)S(=O)(=O)c2ccc(OC)cc2)cc1)Oc1ccccc1 (stereo not drawn) [Compound 5a]
[3]; Ki (pM), class symbols
  Ki: 10 to 100 pM
[1]; [8]
  EC50: < 50 nM
[2]; [7]
  I84V/L90M fold change: − (≦3)

## CCOP(=O)(COCCCN1C(=O)N(Cc2ccc3[nH]nc(N)c3c2)C(Cc2ccccc2)C(O)C(O)C1Cc1ccccc1)OCC (stereo not drawn) [OCH2PO3Et2]
84V90M [4]
  IC50: 157 nM
84V90M [5]
  EC50: > 6000 nM
